# Measurements published in patent US8691586B2 (priority 2006, dated 2014).
# What was measured:
# [1] = target: wild-type (WT) staphylococcal α-hemolysin (αHL) heptamer (Staphylococcus aureus, UniProt P09616); assay type: biochemical; conditions: pH 7
# [2] = target: αHL pore (Staphylococcus aureus, UniProt P09616); assay type: biochemical, staphylococcal
# [3] = target: WT αHL (Staphylococcus aureus, UniProt P09616); assay type: biochemical, staphylococcal; conditions: pH 7
# Chain of WT αHL (P09616 27-319 limits assumed): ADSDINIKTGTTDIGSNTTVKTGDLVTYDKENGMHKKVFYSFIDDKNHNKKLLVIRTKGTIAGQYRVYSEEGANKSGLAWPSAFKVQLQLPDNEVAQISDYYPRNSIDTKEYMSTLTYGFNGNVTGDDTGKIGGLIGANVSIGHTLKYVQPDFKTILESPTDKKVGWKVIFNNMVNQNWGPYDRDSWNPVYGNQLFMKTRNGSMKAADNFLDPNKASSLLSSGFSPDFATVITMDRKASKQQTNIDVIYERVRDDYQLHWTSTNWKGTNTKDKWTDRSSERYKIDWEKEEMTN
# Chain of αHL pore (P09616 27-319 limits assumed): as above
# Chain of wild-type (WT) staphylococcal α-hemolysin (αHL) heptamer (P09616 27-319 limits assumed): as above
substance,measurement,setting,value
γ-cyclodextrin [γCD],residence time (toff) for γCD bound to the αHL pore,[1],495 ± 51 ms
same,residence time (toff),[2],421 ± 22 ms
same,ionic current blocked by transient binding to an αHL pore,[3],around 60%
